Assay results reported in paper PMC4198181, “Gold(I) Complexes of 9-Deazahypoxanthine as Selective Antitumor and Anti-Inflammatory Agents” (PLoS ONE, 2014).

Columns and labels:
[1] = system: MCF7 breast carcinoma cells; assay: MTT in vitro cytotoxicity, MCF7; type: cell-based, human; conditions: 24 h treatment, read-out: IC50±S.E., MCF7
Procedure: (§1) In vitro cytotoxic activity was determined by the MTT assay in human breast adenocarcinoma (MCF7; ECACC no. 86012803), human osteosarcoma (HOS; ECACC no. 87070202), lung carcinoma (A549; ECACC no. 86012804), malignant melanoma (G361; ECACC no. 88030401), cervix epitheloid carcinoma (HeLa; ECACC no. 93021013), ovarian carcinoma (A2780; ECACC no. 93112519), cisplatin-resistant ovarian carcinoma (A2780R; […] ECACC no 105092802) cancer cell lines, purchased from European Collection of Cell Cultures (ECACC). […] The primary culture of human hepatocytes (HEP220, batch number HEP220819) was obtained from Biopredic International (France). The culture medium was Williams and HAM's F-12 (1∶1) supplemented with penicillin, streptomycin, ascorbic acid, linoleic acid, holo-transferin, ethanolamine, glucagon, insulin, dexamethasone, pyruvate, glucose, glutamine, amphotericin. The medium was enriched for plating with 2% foetal calf serum (v/v). The medium was exchanged for a serum-free medium the day after and the culture was stabilized for additional 24 h. Thereafter, the cells were ready for treatments. […] The MTT assay was performed spectrophotometrically at 540 nm (TECAN, Schoeller Instruments LLC). The cytotoxicity data were expressed as the percentage of viability, where 100% represented the treatments with vehicle (0.1% DMF or 0.1% DMSO). The cytotoxicity data from the cancer cell lines were acquired from three independent experiments (conducted in triplicate) using cells from different passages. The IC50 values were calculated from viability curves. The results are presented as arithmetic means±standard error of the mean (S.E.).

[2] = system: A549 lung carcinoma cells; assay: MTT in vitro cytotoxicity, A549; type: cell-based, human; conditions: 24 h treatment, read-out: IC50±S.E., A549
Procedure: as §1

[3] = system: A2780 ovarian carcinoma cells; assay: MTT in vitro cytotoxicity, A2780; type: cell-based, human; conditions: 24 h treatment, read-out: IC50±S.E., A2780
Procedure: as §1

[4] = system: THP-1 monocytic leukaemia cells; assay: WST-1 in vitro cytotoxicity, THP-1; type: cell-based, human; conditions: 24 h treatment, WST-1, 0.16–10.00 µM; read-out: IC50±S.E., THP-1
Procedure: Before the in vitro anti-inflammatory testing, in vitro cytotoxicity on human monocytic leukaemia cells (THP-1, ECACC no. 88081201) was determined using the WST-1 assay. The THP-1 cells (floating monocytes, 500 000 cells/mL) were incubated in 100 µL of the serum-free RPMI 1640 medium and seeded into 96-well plates in triplicate at 37°C. Measurements were taken 24 h after the treatment with the tested compounds dissolved in 0.1% DMSO in the concentration range of 0.16–10.00 µM. Viability was determined by the WST-1 test according to the manufacturer's manual. The amount of the formed formazan (which correlates to the number of metabolically active cells in the culture) was calculated as a percentage of the control cells, which were treated only with 0.1% DMSO and was set-up as 100%. The IC50 values of the tested compounds were calculated from the obtained data. The WST-1 assay was performed spectrophotometrically at 440 nm (FLUOstar Omega, BMG Labtech).
The cytotoxicity data were expressed as the percentage of viability, where 100% represented the treatments with vehicle (0.1% DMF or 0.1% DMSO). The cytotoxicity data from the cancer cell lines were acquired from three independent experiments (conducted in triplicate) using cells from different passages. The IC50 values were calculated from viability curves. The results are presented as arithmetic means±standard error of the mean (S.E.). The significance of the differences between the results was assessed by the ANOVA analysis with p<0.05 considered to be significant (QC Expert 3.2, Statistical software, TriloByte Ltd., Pardubice, Czech Republic).

[5] = system: polymorphonuclear cells infiltration in hind paw tissue; assay: Ex vivo histological evaluation of hind paw tissue (HE staining, PMN infiltration); type: in vivo, Wistar-SPF rats; conditions: 6 h after carrageenan, Indomethacin 5 mg/kg
Procedure: The carrageenan-induced hind paw edema model was used for the determination of anti-inflammatory activity. Animals were i.p. pretreated with complexes 2, 4, and 5 (the dosages of the individual complexes were adjusted to contain the same amount of gold as in 10 mg/kg dose of Auranofin), Indomethacin (5 mg/kg), or 25% DMSO (v/v in water) 30 min prior to the injection of 1% λ-carrageenan solution (50 µL) into the plantar side of right hind paws of the rats. The paw volume was measured immediately after the carrageenan injection (this value was set-up as baseline value for the hind paw volume) and during the next 6 h after the administration of the edematogenic agent using a plethysmometer (model 7159, Ugo Basile, Varese, Italy). The degree of swelling was evaluated as a percentage of the change of the volume of the right hind paw after the carrageenan treatment from the baseline volume. A non-steroidal anti-inflammatory drug Indomethacin was used as a positive control and the obtained data were also compared with the previously reported profile of antiedematous activity for Auranofin [38]. After 6 h, the animals were sacrificed and the edematous feet were dissected, the tissue from the plantar parts was extracted, fixed and stained by a standard hematoxylin/eosin (HE) staining for cytological evaluation of polymorphonuclear cells infiltration.
To assess the tissue consequences connected with the reduction of inflammation caused by the tested compounds after the intraplantar injection of carrageenan, the histopathological observations were made on the tissue sections obtained from the laboratory animals after the plethysmometric experiments were finished. All animals were sacrificed by cervical dislocation, and immediately after that, the tissue samples were taken from the plantar area of hind paws. The histopathological changes in tissues, stained by the standard HE staining (see Figure 10), were evaluated by the presence of the inflammation infiltrate, which contained mainly neutrophils (polymorphonuclear cells - PMN).

Compound	IC50 [1] [µM]	IC50 [2] [µM]	IC50 [3] [µM]	IC50 [4] [µM]	PMN (neutrophil) infiltrate in hind paw tissue sections [5]
CC(C)Oc1ncnc2cc[n]([Au])c12.c1ccc(P(c2ccccc2)c2ccccc2)cc1 [complex 2, [Au(L2)(PPh3)]]	0.6 ± 0.1	17.2 ± 0.7	4 ± 0.2	0.8 ± 0.1	mainly scarce and diffuse
[Au][n]1ccc2ncnc(OCCc3ccccc3)c21.c1ccc(P(c2ccccc2)c2ccccc2)cc1 [complex 5]	> 50	18.3 ± 0.5	4.4 ± 0.3	1.4 ± 0.1	massive presence of PMN cells
